Test results published in US10722501B2 (BAYER AKTIENGESELLSCHAFT, priority 2016, dated 2020).
pIC50: −log10 of the molar value.

Biological target: T1, recombinant full-length human prolyl endopeptidase (PREP) (Homo sapiens, UniProt P48147)
T1 construct: To recombinant full-length human prolyl endopeptidase (PREP, R&D-Systems, 4308-SE); purchased R&D-Systems 4308-SE
T1 sequence (P48147 1-710): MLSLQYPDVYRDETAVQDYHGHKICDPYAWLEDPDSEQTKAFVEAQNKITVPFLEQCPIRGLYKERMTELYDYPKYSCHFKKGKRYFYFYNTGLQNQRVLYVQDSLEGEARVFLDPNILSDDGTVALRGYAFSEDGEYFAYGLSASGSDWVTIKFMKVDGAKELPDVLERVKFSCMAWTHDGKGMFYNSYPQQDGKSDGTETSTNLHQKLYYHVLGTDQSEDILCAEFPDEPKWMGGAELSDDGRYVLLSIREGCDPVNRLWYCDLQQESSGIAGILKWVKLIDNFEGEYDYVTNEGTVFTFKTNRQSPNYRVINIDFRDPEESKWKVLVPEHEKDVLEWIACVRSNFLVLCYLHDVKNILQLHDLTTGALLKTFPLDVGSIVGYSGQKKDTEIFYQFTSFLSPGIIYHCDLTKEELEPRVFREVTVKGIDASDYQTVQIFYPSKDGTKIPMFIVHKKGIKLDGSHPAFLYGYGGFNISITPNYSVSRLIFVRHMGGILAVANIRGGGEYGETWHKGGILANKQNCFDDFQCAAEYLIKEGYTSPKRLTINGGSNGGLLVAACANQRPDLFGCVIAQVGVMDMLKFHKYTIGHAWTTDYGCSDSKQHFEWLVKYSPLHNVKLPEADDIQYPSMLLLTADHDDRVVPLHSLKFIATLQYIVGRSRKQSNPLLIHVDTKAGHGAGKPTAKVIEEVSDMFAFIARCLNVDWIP
Experiment: Biochemical human prolyl endopeptidase (PREP) assay with fluorescently labelled substrate
Settings: substrate Z-Gly-Pro-AMC 50 μM, 32° C., 60 min; some as mean values from multiple independent determinations
In short: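 0.4 nM (final, example) recombinant PREP in pH 7.5 Tris buffer with EDTA, GSH, BSA and Brij-35; compounds at 1 nM to 30 μM. Reaction started with 50 μM Z-Gly-Pro-AMC and followed by fluorescence (ex 360/em 465 nm) at 32° C for 60 min. IC50 interpolated from percent activity based on initial slopes.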
With `O=C([C@@H]1CCCc2nn(Cc3cncc(C(F)(F)F)c3)c(=O)n21)N1CCC(F)(F)C1` [Example 579, (5S)-5-[(3,3-Difluoropyrrolidin-1-yl)carbonyl]-2-{[5-(trifluoromethyl)pyridin-3-yl]methyl}-5,6,7,8-tetrahydro[1,2,4]triazolo[4,3-a]pyridin-3(2H)-one] the pIC50 was 8.96. In the case of `O=C([C@@H]1CCCc2nn(Cc3ncc(F)cc3F)c(=O)n21)N1CC[C@H](F)C1` [Example 581, (5S)-2-[(3,5-Difluoropyridin-2-yl)methyl]-5-{[(3S)-3-fluoropyrrolidin-1-yl]carbonyl}-5,6,7,8-tetrahydro[1,2,4]triazolo[4,3-a]pyridin-3(2H)-one], the pIC50 was 9.52. In the case of `O=C([C@@H]1CCC(F)(F)c2nn(Cc3ccc(Cl)cn3)c(=O)n21)N1CCC(F)(F)C1` [Example 586, (5S)-2-[(5-Chloropyridin-2-yl)methyl]-5-[(3,3-difluoropyrrolidin-1-yl)carbonyl]-8,8-difluoro-5,6,7,8-tetrahydro[1,2,4]triazolo[4,3-a]pyridin-3(2H)-one], the pIC50 was 7.85. `O=C([C@@H]1CCC(F)(F)c2nn(Cc3ccc(Cl)cn3)c(=O)n21)N1CC(F)C1` [Example 587, (5S)-2-[(5-Chloropyridin-2-yl)methyl]-8,8-difluoro-5-[(3-fluoroazetidin-1-yl)carbonyl]-5,6,7,8-tetrahydro[1,2,4]triazolo[4,3-a]pyridin-3(2H)-one] gave a pIC50 of 8.19. Compound `O=C([C@@H]1CCC(F)(F)c2nn(Cc3ncc(F)cc3F)c(=O)n21)N1CCC(F)(F)C1` [Example 588, (5S)-2-[(3,5-Difluoropyridin-2-yl)methyl]-5-[(3,3-difluoropyrrolidin-1-yl)carbonyl]-8,8-difluoro-5,6,7,8-tetrahydro[1,2,4]triazolo[4,3-a]pyridin-3(2H)-one] has a pIC50 of 7.74. In the case of `O=C([C@@H]1CCC(F)(F)c2nn(Cc3ncc(C(F)(F)F)cc3Cl)c(=O)n21)N1CC[C@H](F)C1` [Example 589, (5S)-2-{[3-Chloro-5-(trifluoromethyl)pyridin-2-yl]methyl}-8,8-difluoro-5-{[(3S)-3-fluoropyrrolidin-1-yl]carbonyl}-5,6,7,8-tetrahydro[1,2,4]triazolo[4,3-a]pyridin-3(2H)-one], the pIC50 was 9.46. With `O=C([C@@H]1CCC(F)(F)c2nn(Cc3ncc(C(F)(F)F)cc3Cl)c(=O)n21)N1CCC(F)(F)C1` [Example 590, (5S)-2-{[3-Chloro-5-(trifluoromethyl)pyridin-2-yl]methyl}-5-[(3,3-difluoropyrrolidin-1-yl)carbonyl]-8,8-difluoro-5,6,7,8-tetrahydro[1,2,4]triazolo[4,3-a]pyridin-3(2H)-one] the pIC50 was 8.41.

System: PGP
Experiment: not given
Settings: COPD patients treated; cited from earlier work
For `O=C(Nc1c(Cl)cncc1Cl)c1ccc(OC(F)F)c(OCC2CC2)c1` [roflumilast], the “concentration of PGP in the sputum and serum” value is given as “decrease”.
